Measured values reported in patent US11739074B2, “Ras inhibitors” (Revolution Medicines, Inc., priority 2019, dated 2023).
Where two headings read alike, the source gives them in different places.

Columns and labels:
[1] = system: AsPC-1 (K-Ras G12D); test: CellTiter-Glo cell viability assay, AsPC-1; assay type: cell-based; settings: Homo sapiens, ASPC1, 120 h
Description: Determination of Cell Viability in RAS Mutant Cancer Cell Lines
Protocol: CellTiter-Glo® Cell Viability Assay
Note—The following protocol describes a procedure for monitoring cell viability of K-Ras mutant cancer cell lines in response to a compound of the invention. Other RAS isoforms may be employed, though the number of cells to be seeded will vary based on cell line used.
Test compounds (132.5 nL) were directly dispensed into the assay plates containing cells. […] On day 5, assay plates and their contents were equilibrated to room temperature for approximately 30 minutes. […] Luminescence was measured using the PerkinElmer Enspire. Data were normalized by the following: (Sample signal/Avg. DMSO)*100. The data were fit using a four-parameter logistic fit.

[2] = system: AsPC-1 (K-Ras G12D); test: Potency assay: pERK in AsPC-1 cells; assay type: cell-based; settings: Homo sapiens
[3] = AsPC-1, K-Ras G12D, 5-day treatment, read-out: AsPC-1 Cell Viability IC50
[4] = ASPC1, AsPC-1 cells, K-Ras G12D, read-out: pERK EC50 (AsPC-1 KRAS G12D)
[5] = read-out: AsPC-1 Cell Viability IC50, AsPC-1, K-Ras G12D, 5-day treatment
[6] = ASPC1, read-out: pERK EC50 (AsPC-1 KRAS G12D)

SMILES | IC50 [1, 3] [µM] | EC50 [2, 4] [µM] | IC50 [1, 5] [µM] | EC50 [2, 6] [µM]
CCn1c(-c2cccnc2[C@H](C)OC)c2c3cc(ccc31)-c1cc(O)cc(c1)C[C@H](NC(=O)[C@H](C(C)C)N(C)C(=O)N1CCN(C(=O)[C@H]3CN3)CC1)C(=O)N1CCC[C@H](N1)C(=O)OCC(C)(C)C2 [Example 177, 4-((R)-aziridine-2-carbonyl)-N-((2S)-1-(((6^3S,4S)-1^1-ethyl-2^5-hydroxy-1^2-(2-((S)-1-methoxyethyl)pyridin-3-yl)-10,10-dimethyl-5,7-dioxo-6^1,6^2,6^3,6^4,6^5,6^6-hexahydro-1^1H-8-oxa-1(5,3)-indola-6(1,3)-pyridazina-2(1,3)-benzenacycloundecaphane-4-yl)amino)-3-methyl-1-oxobutan-2-yl)-N-methylpiperazine-1-carboxamide] | 1 to 10 | < 5 |  | 
CCn1c(-c2cccnc2[C@H](C)OC)c2c3cc(ccc31)-c1cc(O)cc(c1)C[C@H](NC(=O)[C@H](C(C)C)N(C)C(=O)N1CCN(C(=O)[C@H]3CN3)CC1=O)C(=O)N1CCC[C@H](N1)C(=O)OCC(C)(C)C2 [Compound 183] | > 10 | < 5 |  | 
CCn1c(-c2cccnc2[C@H](C)OC)c2c3cc(ccc31)-c1cc(O)cc(c1)C[C@H](NC(=O)[C@H](C(C)C)N(C)C(=O)c1ccc([C@@H]3CN3)nc1)C(=O)N1CCC[C@H](N1)C(=O)OCC(C)(C)C2 [Example 87, 6-((S)-aziridin-2-yl)-N-((2S)-1-(((6^3S,4S)-1^1-ethyl-2^5-hydroxy-1^2-(2-((S)-1-methoxyethyl)pyridin-3-yl)-10,10-dimethyl-5,7-dioxo-6^1,6^2,6^3,6^4,6^5,6^6-hexahydro-1^1H-8-oxa-1(5,3)-indola-6(1,3)-pyridazina-2(1,3)-benzenacycloundecaphane-4-yl)amino)-3-methyl-1-oxobutan-2-yl)-N-methylnicotinamide] | 1 to 10 | < 5 |  | 
CCn1c(-c2cccnc2[C@H](C)OC)c2c3cc(ccc31)-c1cc(O)cc(c1)C[C@H](NC(=O)[C@H](C(C)C)N(C)C(=O)CN(C)C(=O)[C@@H]1CN1CC1COC1)C(=O)N1CCC[C@H](N1)C(=O)OCC(C)(C)C2 (some centres unmarked) [Compound 278] |  |  | 1 to 10 | < 5
CCn1c(-c2cccnc2[C@H](C)OC)c2c3cc(ccc31)-c1cc(O)cc(c1)C[C@H](NC(=O)[C@H](C(C)C)N(C)C(=O)CN(C)C(=O)[C@H]1N[C@@H]1C1COC1)C(=O)N1CCC[C@H](N1)C(=O)OCC(C)(C)C2 [Compound 284] |  |  | 1 to 10 | < 5
CCn1c(-c2cccnc2[C@H](C)OC)c2c3cc(ccc31)-c1cc(O)cc(c1)C[C@H](NC(=O)[C@H](C(C)C)N(C)C(=O)CN(C)S(=O)(=O)[C@H]1CN1C)C(=O)N1CCC[C@H](N1)C(=O)OCC(C)(C)C2 (single isomer, unassigned) [Compound 91] | 1 to 10 | < 5 |  | 
CCn1c(-c2cccnc2[C@H](C)OC)c2c3cc(ccc31)-c1cc(O)cc(c1)C[C@H](NC(=O)[C@H](C(C)C)N(C)C(=O)CN(C)C(=O)[C@@H]1CN1CC(=O)N(C)C)C(=O)N1CCC[C@H](N1)C(=O)OCC(C)(C)C2 (some centres unmarked) [Compound 271] |  |  | > 10 | < 5
CCn1c(-c2cccnc2[C@H](C)OC)c2c3cc(ccc31)-c1cc(O)cc(c1)C[C@H](NC(=O)[C@H](C(C)C)N(C)C(=O)C1CCN(S(=O)(=O)[C@H]3CN3C)CC1)C(=O)N1CCC[C@H](N1)C(=O)OCC(C)(C)C2 (single isomer, unassigned) [Compound 108] | 1 to 10 | < 5 |  | 
CCn1c(-c2cccnc2[C@H](C)OC)c2c3cc(ccc31)-c1cc(O)cc(c1)C[C@H](NC(=O)[C@H](C(C)C)N(C)C(=O)C1CN(S(=O)(=O)[C@@H]3CN3C)C1)C(=O)N1CCC[C@H](N1)C(=O)OCC(C)(C)C2 (single isomer, unassigned) [Compound 118] | > 10 | < 5 |  | 
CCn1c(-c2cccnc2[C@H](C)OC)c2c3cc(ccc31)-c1cc(O)cc(c1)C[C@H](NC(=O)[C@H](C(C)C)N(C)C(=O)[C@H]1C[C@H]3CC[C@@H](C1)N3C(=O)[C@@H]1CN1)C(=O)N1CCC[C@H](N1)C(=O)OCC(C)(C)C2 [Compound 246] | 1 to 10 | < 5 |  | 
CCn1c(-c2cccnc2[C@H](C)OC)c2c3cc(ccc31)-c1csc(n1)C[C@H](NC(=O)[C@H](C(C)C)N(C)C(=O)N(C)C1CN(C(=O)[C@@H]3CN3)C1)C(=O)N1CCC[C@H](N1)C(=O)OCC(C)(C)C2 [Compound 221] | 1 to 10 | < 5 |  | 
CCn1c(-c2cccnc2[C@H](C)OC)c2c3cc(ccc31)-c1cc(O)cc(c1)C[C@H](NC(=O)[C@H](C(C)C)N(C)C(=O)[C@H]1CCCN1C(=O)[C@H]1CN1)C(=O)N1CCC[C@H](N1)C(=O)OCC(C)(C)C2 [Compound 152] |  |  | 1 to 10 | < 5
CCn1c(-c2cccnc2[C@H](C)OC)c2c3cc(ccc31)-c1cc(O)cc(c1)C[C@H](NC(=O)[C@@H](C(C)C)N(C)C(=O)[C@@]1(C)CCCN1C(=O)[C@@H]1CN1)C(=O)N1CCC[C@H](N1)C(=O)OCC(C)(C)C2 [Compound 242] | 1 to 10 | < 5 |  | 
CCn1c(-c2cccnc2[C@H](C)OC)c2c3cc(ccc31)-c1cccc(c1)C[C@H](NC(=O)[C@H](C(C)C)N(C)C(=O)[C@H]1C[C@H](N=C=NCCOC)C1)C(=O)N1CCC[C@H](N1)C(=O)OCC(C)(C)C2 [Compound 78] | 1 to 10 | < 5 |  | 
CCn1c(-c2cccnc2[C@H](C)OC)c2c3cc(ccc31)-c1cc(O)cc(c1)C[C@H](NC(=O)[C@H](C(C)C)N(C)C(=O)[C@H]1CCN(C(=O)[C@@H]3N[C@@H]3C3CC3)C1)C(=O)N1CCC[C@H](N1)C(=O)OCC(C)(C)C2 [Compound 198] | 0.1 to 1 | < 5 |  | 
CCn1c(-c2cccnc2[C@H](C)OC)c2c3cc(ccc31)-c1cc(O)cc(c1)C[C@H](NC(=O)[C@H](C(C)C)N(C)C(=O)CN(C)S(=O)(=O)[C@@H]1CN1C)C(=O)N1CCC[C@H](N1)C(=O)OCC(C)(C)C2 (single isomer, unassigned) [Compound 92] | 1 to 10 | < 5 |  | 
CCn1c(-c2cccnc2[C@H](C)OC)c2c3cc(ccc31)-c1csc(n1)C[C@H](NC(=O)[C@H](C(C)C)N(C)C(=O)N(C)[C@H]1CCN(C(=O)[C@@H]3CN3)C1)C(=O)N1CCC[C@H](N1)C(=O)OCC(C)(C)C2 [Compound 310] | 1 to 10 | < 5 |  | 
CCn1c(-c2cnccc2COC)c2c3cc(ccc31)-c1cc(O)cc(c1)C[C@H](NC(=O)[C@H](C(C)C)N(C)C(=O)CN(C)C(=O)[C@@H]1N[C@@H]1C)C(=O)N1CCC[C@H](N1)C(=O)OCC(C)(C)C2 [Compound 105] |  |  | 1 to 10 | < 5
CCn1c(-c2cccnc2[C@H](C)OC)c2c3cc(ccc31)-c1cc(O)cc(c1)C[C@H](NC(=O)[C@H](C(C)C)N(C)C(=O)[C@H]1CCN1C(=O)[C@H]1CN1)C(=O)N1CCC[C@H](N1)C(=O)OCC(C)(C)C2 [Compound 158] | 1 to 10 | < 5 |  | 
CCn1c(-c2cccnc2[C@H](C)OC)c2c3cc(ccc31)-c1cc(O)cc(c1)C[C@H](NC(=O)[C@H](C(C)C)N(C)C(=O)C13CC(CN1C(=O)[C@H]1CN1)C3)C(=O)N1CCC[C@H](N1)C(=O)OCC(C)(C)C2 [Compound 164] | 1 to 10 | < 5 |  | 
CCn1c(-c2cnccc2COC)c2c3cc(ccc31)-c1cc(O)cc(c1)C[C@H](NC(=O)[C@H](C(C)C)N(C)C(=O)CCNC1=NCCO1)C(=O)N1CCC[C@H](N1)C(=O)OCC(C)(C)C2 [Compound 120] | 1 to 10 | < 5 |  | 
CCn1c(-c2cccnc2[C@H](C)OC)c2c3cc(ccc31)-c1cc(O)cc(c1)C[C@H](NC(=O)[C@H](C(C)C)N(C)C(=O)CN(C)C(=O)[C@H]1CN1CCCN1CCOC1=O)C(=O)N1CCC[C@H](N1)C(=O)OCC(C)(C)C2 (some centres unmarked) [Compound 272] |  |  | 1 to 10 | < 5
CCn1c(-c2cccnc2[C@H](C)OC)c2c3cc(ccc31)-c1cc(O)cc(c1)C[C@H](NC(=O)[C@H](C(C)C)N(C)C(=O)CN(C)C(=O)[C@H]1N[C@H]1C1COC1)C(=O)N1CCC[C@H](N1)C(=O)OCC(C)(C)C2 [Compound 282] |  |  | 1 to 10 | < 5
CCn1c(-c2cccnc2[C@H](C)OC)c2c3cc(ccc31)-c1csc(n1)C[C@H](NC(=O)[C@H](C(C)C)N(C)C(=O)N(C)C1CN(C(=O)[C@H]3CN3)C1)C(=O)N1CCC[C@H](N1)C(=O)OCC(C)(C)C2 [Compound 220] | 1 to 10 | < 5 |  | 
CCn1c(-c2cccnc2[C@H](C)OC)c2c3cc(ccc31)-c1cc(O)cc(c1)C[C@H](NC(=O)[C@H](C(C)C)N(C)C(=O)CNC(=O)[C@H]1CN1)C(=O)N1CCC[C@H](N1)C(=O)OCC(C)(C)C2 [Compound 140] |  |  | 1 to 10 | < 5
CCn1c(-c2cccnc2[C@H](C)OC)c2c3cc(ccc31)-c1cc(O)cc(c1)C[C@H](NC(=O)[C@H](C(C)C)N(C)C(=O)C1CN(S(=O)(=O)[C@H]3CN3C)C1)C(=O)N1CCC[C@H](N1)C(=O)OCC(C)(C)C2 (single isomer, unassigned) [Compound 117] | 1 to 10 | < 5 |  | 
CCn1c(-c2cccnc2[C@H](C)OC)c2c3cc(ccc31)-c1cc(O)cc(c1)C[C@H](NC(=O)[C@H](C(C)C)N(C)C(=O)[C@H]1CC[C@@H](C)N1C(=O)[C@@H]1CN1)C(=O)N1CCC[C@H](N1)C(=O)OCC(C)(C)C2 [Compound 153] |  |  | 1 to 10 | < 5
CCn1c(-c2cccnc2[C@H](C)OC)c2c3cc(ccc31)-c1cc(O)cc(c1)C[C@H](NC(=O)[C@H](C(C)C)N1CC[C@@H](NC(=O)[C@@H]3CN3)C1=O)C(=O)N1CCC[C@H](N1)C(=O)OCC(C)(C)C2 [Compound 129] | 1 to 10 | < 5 |  | 
